In the NIST ThermoML archive (doi:10.1016/j.jct.2013.05.029):

Columns and labels:
[1] = 101.33 kPa, Liquid, Vibrating tube method
[2] = refractive index (other wavelength) (dimensionless); details: 101 kPa, Liquid, Wavelength=633 nm, Standard Abbe refractometry
[3] = relative permittivity at various frequencies (dimensionless); details: 101 kPa, Liquid, Frequency=0.151 MHz, Parallel plate capacitor
[4] = refractive index (other wavelength) (dimensionless); xn = mol fraction of the nth substance listed; details: 101 kPa, Liquid, Wavelength=633 nm, Standard Abbe refractometry

CCCCn1cc[n+](C)c1.F[B-](F)(F)F [1-butyl-3-methylimidazolium tetrafluoroborate]
Details	mass density [kg/m3]	refractive index
[1], 291.15 K	1206.3	–
[1], 293.15 K	1204.9	–
[1], 295.14 K	1203.5	–
[1], 298.15 K	1201.3	–
[1], 300.14 K	1199.9	–
[1], 303.15 K	1197.7	–
[1], 305.14 K	1196.3	–
[1], 308.15 K	1194.1	–
[1], 310.14 K	1192.7	–
[2], 292.99 K	–	1.4207
[2], 298.14 K	–	1.4194
[2], 300.94 K	–	1.4187
[2], 303.06 K	–	1.4182
[2], 307.96 K	–	1.4169

OCCC(F)(F)C(F)(F)C(F)(F)C(F)(F)C(F)(F)C(F)(F)F [1H,1H,2H,2H-perfluorooctanol]
Details	mass density [kg/m3]	refractive index	relative permittivity
[1], 291.15 K	1692.2	–	–
[1], 293.15 K	1688.7	–	–
[1], 295.14 K	1685.2	–	–
[1], 298.15 K	1679.9	–	–
[1], 300.14 K	1676.4	–	–
[1], 303.15 K	1671	–	–
[1], 305.14 K	1667.5	–	–
[1], 308.15 K	1662.1	–	–
[1], 310.14 K	1658.5	–	–
[2], 292.89 K	–	1.3152	–
[2], 297.98 K	–	1.3134	–
[2], 300.94 K	–	1.3125	–
[2], 304.98 K	–	1.3112	–
[2], 307.95 K	–	1.3101	–
[2], 308.13 K	–	1.31	–
[3], 293.15 K	–	–	9.67
[3], 298.15 K	–	–	9.21
[3], 303.15 K	–	–	8.83
[3], 308.15 K	–	–	8.46
[3], 313.15 K	–	–	8.12

OCCC(F)(F)C(F)(F)C(F)(F)C(F)(F)C(F)(F)C(F)(F)F [1H,1H,2H,2H-perfluorooctanol] + CCCCn1cc[n+](C)c1.F[B-](F)(F)F
[4]
Details	refractive index
568.17 K, x2 = 0.483	1.3609
568.17 K, x2 = 0.975	1.417
569.9 K, x2 = 0.514	1.3635
569.9 K, x2 = 0.972	1.4162
570.62 K, x2 = 0.528	1.3648
570.62 K, x2 = 0.969	1.4157
571.13 K, x2 = 0.539	1.3658
571.13 K, x2 = 0.967	1.4153
571.88 K, x2 = 0.555	1.3673
571.88 K, x2 = 0.963	1.4146
572.59 K, x2 = 0.569	1.3686
572.59 K, x2 = 0.96	1.414
573.11 K, x2 = 0.585	1.3701
573.11 K, x2 = 0.958	1.4137
573.58 K, x2 = 0.595	1.3712
573.58 K, x2 = 0.953	1.4128
574.07 K, x2 = 0.61	1.3726
574.07 K, x2 = 0.946	1.4119
574.57 K, x2 = 0.62	1.3736
574.57 K, x2 = 0.944	1.4115
575.11 K, x2 = 0.641	1.3757
575.11 K, x2 = 0.935	1.4102
575.59 K, x2 = 0.663	1.378
575.59 K, x2 = 0.93	1.4096
576.09 K, x2 = 0.684	1.3803
576.09 K, x2 = 0.917	1.4078
576.69 K, x2 = 0.729	1.3852
576.69 K, x2 = 0.892	1.4045
